target: Poly [ADP-ribose] polymerase 1 (Homo sapiens, UniProt P09874); test: PARP ELISA Assay; settings: pH 8; 22 °C
Experimental: The assay was performed in 96-well ELISA plates according to instructions provided with a commercially available PARP inhibition assay kit (Trevigen, Gaithersburg, MD). After incubation, incorporated biotin was detected by peroxidase-conjugated streptavidin and TACS Sapphire substrate.

Chain of Poly [ADP-ribose] polymerase 1 (P09874 whole entry): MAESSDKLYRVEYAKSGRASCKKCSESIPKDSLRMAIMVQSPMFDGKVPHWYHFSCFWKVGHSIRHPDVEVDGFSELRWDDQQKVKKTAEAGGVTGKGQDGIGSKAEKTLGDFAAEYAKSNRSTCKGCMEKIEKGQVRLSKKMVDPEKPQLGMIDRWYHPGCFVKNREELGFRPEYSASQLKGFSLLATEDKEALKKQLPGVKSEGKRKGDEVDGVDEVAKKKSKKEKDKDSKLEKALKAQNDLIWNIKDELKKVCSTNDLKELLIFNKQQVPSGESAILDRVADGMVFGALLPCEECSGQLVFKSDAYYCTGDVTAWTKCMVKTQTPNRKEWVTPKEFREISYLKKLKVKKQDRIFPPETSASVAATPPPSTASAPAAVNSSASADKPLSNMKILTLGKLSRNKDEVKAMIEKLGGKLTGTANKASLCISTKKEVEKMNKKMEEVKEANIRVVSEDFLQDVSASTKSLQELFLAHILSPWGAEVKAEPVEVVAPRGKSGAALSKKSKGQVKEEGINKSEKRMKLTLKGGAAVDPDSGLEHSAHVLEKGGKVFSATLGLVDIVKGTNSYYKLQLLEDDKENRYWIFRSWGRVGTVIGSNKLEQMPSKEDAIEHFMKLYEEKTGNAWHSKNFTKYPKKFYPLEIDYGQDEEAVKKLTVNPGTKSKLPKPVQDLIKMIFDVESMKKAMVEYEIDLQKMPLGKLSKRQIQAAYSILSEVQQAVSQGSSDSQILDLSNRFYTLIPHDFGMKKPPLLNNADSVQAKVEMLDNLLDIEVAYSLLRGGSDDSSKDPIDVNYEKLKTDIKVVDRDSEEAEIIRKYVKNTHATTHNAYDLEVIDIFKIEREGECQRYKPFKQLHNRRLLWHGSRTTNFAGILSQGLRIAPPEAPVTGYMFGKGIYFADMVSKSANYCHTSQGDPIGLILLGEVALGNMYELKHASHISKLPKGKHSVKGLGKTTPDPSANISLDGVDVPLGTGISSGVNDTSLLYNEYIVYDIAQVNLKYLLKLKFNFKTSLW

`O=C(CCCN1CCOCC1)Nc1ccc2c(c1)-c1[nH]c(=O)c3ccccc3c1C2` [4-(morpholin-4-yl)-N-{8-oxo-9-azatetracyclo[8.7.0.0^{2,7}.0^{11,16}]heptadeca-1(10),2(7),3,5,11(16),12,14-heptaen-13-yl}butanamide] and `O=c1[nH]c2c(c3ccccc13)Cc1cc(S(=O)(=O)NN3CCOCC3)c(F)cc1-2` [13-fluoro-N-(morpholin-4-yl)-8-oxo-9-azatetracyclo[8.7.0.0^{2,7}.0^{11,16}]heptadeca-1(10),2(7),3,5,11(16),12,14-heptaene-14-sulfonamide] are within 1.5-fold of each other in IC50: 400 nM for the first, 450 nM for the second.

With `C[N+]1(CCCNS(=O)(=O)c2ccc3c(c2)Cc2c-3[nH]c(=O)c3ccccc23)CCOCC1` [4-methyl-4-[3-({8-oxo-9-azatetracyclo[8.7.0.0^{2,7}.0^{11,16}]heptadeca-1(10),2(7),3,5,11(16),12,14-heptaene-14-}sulfonamido)propyl]morpholin-4-ium iodide] the IC50 was 800 nM.

Reference: BindingDB's records for doi:10.1021/jm0502891 (Inotek Pharmaceuticals, 2005)
